Three compounds from paper PMC4113355, “Carbamoylating Activity Associated with the Activation of the Antitumor Agent Laromustine Inhibits Angiogenesis by Inducing ASK1-Dependent Endothelial Cell Death” (PLoS ONE, 2014) can be followed below.

Structures are written as SMILES.

The assay addresses T1, Trx reductase-1 (TrxR1) (Rattus norvegicus, UniProt O89049).
T1 construct: gene Txnrd1
T1 sequence (O89049 1-499): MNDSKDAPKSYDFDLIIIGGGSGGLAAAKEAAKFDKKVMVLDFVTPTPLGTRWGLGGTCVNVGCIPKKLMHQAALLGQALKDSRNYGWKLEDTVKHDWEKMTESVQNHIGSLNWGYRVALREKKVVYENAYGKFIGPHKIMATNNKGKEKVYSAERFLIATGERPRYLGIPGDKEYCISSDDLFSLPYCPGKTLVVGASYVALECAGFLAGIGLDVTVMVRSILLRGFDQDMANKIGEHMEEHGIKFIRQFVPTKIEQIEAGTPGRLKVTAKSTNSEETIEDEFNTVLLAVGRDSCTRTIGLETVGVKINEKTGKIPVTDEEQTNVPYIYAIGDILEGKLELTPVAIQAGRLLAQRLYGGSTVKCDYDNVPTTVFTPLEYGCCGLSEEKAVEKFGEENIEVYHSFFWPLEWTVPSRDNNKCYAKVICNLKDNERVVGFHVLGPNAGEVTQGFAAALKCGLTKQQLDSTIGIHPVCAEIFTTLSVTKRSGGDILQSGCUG
In words: DTNB reduction assay with purified TrxR1, […] h pre-incubation with NADPH at pH […].
Compound `CNC(=O)N(NS(C)(=O)=O)S(C)(=O)=O` [101MDCE, 1,2-bis(methylsulfonyl)-1-[(methylamino)carbonyl]hydrazine] displayed a half-maximal inhibitory concentration (IC50) of 9.9 ± 3.1 µM. Then `O=NN(CCCl)C(=O)NCCCl` [BCNU, 1,3-bis(2-chloroethyl)-1-nitrosourea], with 5.4 ± 1.4 µM; and `CNC(=O)N(N(CCCl)S(C)(=O)=O)S(C)(=O)=O` [Laromustine, 1,2-bis(methylsulfonyl)-1-(2-chloroethyl)-2-[(methylamino)carbonyl]hydrazine], with 5 ± 1.1 µM.
